Reference: patent US20250127907A1, “PARP INHIBITORS” (Stablix, Inc., priority 2023, published 2025)

Legend:
PARP1 [1] = target: T1, PARP1 (Homo sapiens, UniProt P09874); test: PARP1-enzyme assay (NAD/NADH-Glo biochemical assay); details: recombinant PARP1, NAD+ consumption
Description: The PARP enzyme catalyzes the transfer of ADP-Ribose from NAD+ onto PAR chains/histone substrates. The catalytic cycle is monitored indirectly with the NAD/NADH-Glo Assay kit from Promega. […] NAD+ consumed is determined by comparison to the no enzyme control.
• Recombinant PARP1 • NAD+/NAHD-Glow assay Kit • Activated DNA, 10 μg/mL • NAD+(Nicotinamide Adenine Dinucleotide), 500 nM • Protein substrate for PARP1: Core Histone from chicken, 10 μg/mL
The letter codes for the PARP1-enzyme assay include: A (<1 nM), B (>1-10 nM), C (>10-100 nM), D (>100-1000 nM), E (>1000 nM), and “-” is not tested. The letter codes for the PARP trapping assay, and parylation assay include: A (<10 nM), B (>10-100 nM), C (>100-1000 nM), […], E (>10000 nM), and “-” is not tested.
Target sequence in this assay (P09874 whole entry, species assumed): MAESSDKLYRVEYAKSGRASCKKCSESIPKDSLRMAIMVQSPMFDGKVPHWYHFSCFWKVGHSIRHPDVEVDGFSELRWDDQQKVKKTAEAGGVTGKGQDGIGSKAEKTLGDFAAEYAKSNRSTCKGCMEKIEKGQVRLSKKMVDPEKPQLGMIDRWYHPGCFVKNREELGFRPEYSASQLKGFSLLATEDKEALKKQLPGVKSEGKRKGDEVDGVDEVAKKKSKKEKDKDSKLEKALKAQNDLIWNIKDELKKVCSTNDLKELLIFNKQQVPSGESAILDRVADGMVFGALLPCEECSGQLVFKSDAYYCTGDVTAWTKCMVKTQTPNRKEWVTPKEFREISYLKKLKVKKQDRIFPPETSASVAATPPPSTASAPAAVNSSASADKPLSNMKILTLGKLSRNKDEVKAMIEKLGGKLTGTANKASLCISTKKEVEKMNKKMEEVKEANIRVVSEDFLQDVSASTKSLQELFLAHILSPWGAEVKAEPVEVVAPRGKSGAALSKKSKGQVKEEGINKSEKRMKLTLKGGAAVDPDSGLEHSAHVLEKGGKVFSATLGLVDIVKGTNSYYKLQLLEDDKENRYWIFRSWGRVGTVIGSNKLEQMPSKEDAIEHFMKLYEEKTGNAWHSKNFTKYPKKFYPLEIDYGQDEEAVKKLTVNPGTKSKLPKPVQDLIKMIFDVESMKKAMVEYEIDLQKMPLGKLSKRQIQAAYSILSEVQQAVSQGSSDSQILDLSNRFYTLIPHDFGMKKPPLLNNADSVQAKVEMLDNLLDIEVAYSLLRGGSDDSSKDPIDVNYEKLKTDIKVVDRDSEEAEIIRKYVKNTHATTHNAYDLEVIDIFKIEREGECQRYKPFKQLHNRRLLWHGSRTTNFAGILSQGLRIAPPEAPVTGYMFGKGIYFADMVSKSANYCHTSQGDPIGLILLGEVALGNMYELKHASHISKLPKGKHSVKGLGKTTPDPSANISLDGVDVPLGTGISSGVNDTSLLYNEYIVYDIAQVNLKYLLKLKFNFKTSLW

[2] = tested on: Poly/Mono-ADP Ribose in U2OS cells; test: PAR in cell western assay (parylation) in U2OS cells; format: cell-based; details: Homo sapiens; U2OS cells, 6 hrs, 2 mM H2O2; read-out: Parylation (U2OS)
How it was run: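 U2OS cells treated with compound for 6 h, then 2 mM H2O2 for 10 min to induce DNA damage. After methanol fixation, cells stained overnight at 4 °C with anti-mono/poly-ADP-ribose antibody and imaged by infrared in-cell western, normalized to CellTag 700; reported as % control inhibition.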

A2780 cells = test: Cell proliferation assay (A2780); format: cell-based; details: Homo sapiens, 168 h, 7 days
HCC1806 cells = test: Cell proliferation assay (HCC1806); format: cell-based; details: Homo sapiens, 168 h, 7 days
MDA-MB-436 cells = test: Cell proliferation assay (MDA-MB-436); format: cell-based; details: Homo sapiens, 168 h, 7 days
PARP1 [3] = target: T1, PARP1; test: PARP trapping assay in U2OS cells; format: cell-based; set-up: endogenous in cells; host or cells: U2OS; details: U2OS cells, MMS, 4 hrs; read-out: PARP Trapping (U2OS)
How it was run: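 U2OS cells co-treated with compounds and MMS for 4 h, then soluble proteins extracted with 0.5% Triton X-100, MeOH-fixed and immunostained for PARP1. Chromatin-bound PARP1 quantified as AF488 intensity per DAPI-segmented nucleus; potencies reported as letter-code bins.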
Target sequence in this assay (P09874 whole entry): as the sequence (P09874 whole entry, species assumed) above

Structure (SMILES) | IC50 (PARP1 [1]) [nM] | IC50 [2] [nM] | IC50 (A2780 cells) [nM] | IC50 (HCC1806 cells) [nM] | IC50 (MDA-MB-436 cells) [nM] | IC50 (PARP1 [3]) [nM]
CCc1cccc(-c2cnc(C(=O)N3CCC(CN4CCN(CC(=O)N5CCN(C(=O)c6cc(Cc7n[nH]c(=O)c8ccccc78)ccc6F)CC5)CC4)CC3)c(NC(C)=O)c2)c1 [Compound I-367] | < 1 | 100 to 1000 | 100 to 1000 | 100 to 1000 | 100 to 1000 | 100 to 1000
O=C(NC(C(=O)N1CCC(OC2CCN(CC(=O)N3CCN(C(=O)c4cc(Cc5n[nH]c(=O)c6ccccc56)ccc4F)CC3)CC2)CC1)C1CCCCC1)c1cccc(C2CCCN(C(=O)CNCc3ccc(F)cc3F)C2)c1 (stereo not drawn) [Compound I-369] | < 1 | 10 to 100 | 10 to 100 | 100 to 1000 | < 10 | 100 to 1000
CCc1cccc(-c2cnc(C(=O)NCCOCCNCC(=O)N3CCN(C(=O)c4cc(Cc5n[nH]c(=O)c6ccccc56)ccc4F)CC3)c(NC(C)=O)c2)c1 [Compound I-403] | < 1 | 10 to 100 | 10 to 100 | 10 to 100 | < 10 | 100 to 1000
CCc1cccc(-c2cc(F)c(C(=O)N3CCC(CN4CCN(CC(=O)N5CCN(C(=O)c6cc(Cc7n[nH]c(=O)c8ccccc78)ccc6F)CC5)CC4)CC3)c(F)c2)c1 [Compound I-410] | < 1 | 10 to 100 | 10 to 100 | 10 to 100 | < 10 | 10 to 100
O=C(N[C@@H](C(=O)N1CCC(OC2CCN(CC(=O)N3CCN(C(=O)c4cc(Cc5n[nH]c(=O)c6ccccc56)ccc4F)CC3)CC2)CC1)C1CCCCC1)c1cccc(C2CCCN(C(=O)C3CC3)C2)c1F (stereo partly drawn) [Compound I-457] | < 1 | 100 to 1000 | 10 to 100 | 10 to 100 | < 10 | 10 to 100
CC(C)(C)OC(=O)N[C@@H](C(=O)N1CCC(OC2CCN(CC(=O)N3CCN(C(=O)c4cc(Cc5n[nH]c(=O)c6ccccc56)ccc4F)CC3)CC2)CC1)C1CCCCC1 [Compound I-787] | < 1 | 10 to 100 | 10 to 100 | 10 to 100 | < 10 | 10 to 100
O=C(N[C@@H](C(=O)N1CCN(CC2CCN(CC(=O)N3CCN(C(=O)c4cc(Cc5n[nH]c(=O)c6ccccc56)ccc4F)CC3)CC2)CC1)C1CCCCC1)c1cccc(C2CCCN(C(=O)C3CC3)C2)c1 (stereo partly drawn) [Compound I-962] | < 1 | 10 to 100 | 100 to 1000 | 100 to 1000 | 10 to 100 | 100 to 1000
